Source: patent US20250099430A1, “PREVENTION OR TREATMENT OF SLEEP DISORDERS USING DEXMEDETOMIDINE FORMULATION” (BioXcel Therapeutics, Inc., priority 2014, published 2025)
Where “and” joins values, the source holds several entries; their conditions need not be identical. Identical values can stand only once. Entries after “also recorded” stand apart in the source; their conditions may differ.

Tested on: Wistar rats
Test: Sleep promoting properties in Wistar rats, video monitoring of home cage activity (total sleep time, latency to sleep, number of sleep episodes)
Assay type: in vivo
Settings: for Total Sleep time: 180 min recording
Procedure: Sublingual dexmedetomidine formulation of present invention was tested in rats for its ability to increase the amount of sleep or decrease sleep interruption or both without undesired effects. Test animals' activity was continuously monitored by using a video camera overhead and data analysed for latency of sleep, total sleep time and number of sleep episodes by using the NoldusEthovision-XT 11.
Male Wistar rats were approximately of the weight 180 g-220 g and age of about 5-7 weeks old. Animals were numbered and kept in acclimatization for a period of 5-7 days before the initiation of the experiment. All the experiments on animals were conducted in accordance with the guidelines of the Committee for the Purpose of Control and Supervision of Experiments on Animals (CPCSEA), Goveemment of India the Association for Assessment and Accreditation of Laboratory Animal Care intemational (AAALAC).
Recording Environment: Animals were housed group wise (three animals per cage) within a microisolator cage modified with an inserted polycarbonate filter-top riser to allow more vertical headroom. Animals were maintained on the normal rodent chow ad libitum and given free access to fresh autoclaved potable drinking water. Animals were kept in a controlled environmental condition with 22±3° C. temperature, 50±20% humidity, a light dark cycle of 12 hours each and 15-20 fresh air changes per hour.
Animal Groups: Wistar rats were randomly divided into different groups, each containing 6 animals. The study groups were divided as normal control group, vehicle control group, test compound groups and reference compound group.
Animals were weight once at randomization and each day thereafter. The animals were studied from day 1 till day 9. […] On day 3, animals were dosed with test compounds and respiratory parameters such as tidal volume, frequency of respiration: heart rate and blood pressure were recorded. On day 5 and day 6, animals were trained on the rotarod apparatus (4-40 rpm for 300 s). On day 7, animals were administered with test compounds and motor coordination was tested on rotarod at 3, 10, 17, 24 and 30 minutes post administration to establish a temporal scale of loss of motor activity and drowsiness. On day 9, animals were dosed with test compounds and blood was collected at 15, 30, 60 and 120 min post sublingual dosing to estimate plasma drug concentration of dexmedetomidine. All the animals were euthanized by CO2 inhalation on day 9. The animal in the satellite groups was dosed with test compounds and blood was collected on day 0 at 15, 30, 60, and 120 min post sublingual dosing to estimate plasma drug concentration of dexmedetomidine after first drug exposure.
The normal control group received no treatment: vehicle control group received 0.9% saline water; the test group received compound (dexmedetomidine), administered sublingually in different doses (dose 1-5.14 μg/kg of body weight, dose 2-10 μg/kg of body weight, dose 3-20 μg/kg of body weight, dose 4-30 μg/kg of body weight and dose 5-40 μg/kg of body weight) and also administered parenterally (dose 6-1.5 μg kg of body weight); and the reference compound (Zolpidem) was administered orally in dose of 30 mg/kg of body weight. The treatment was given such that no rat received the same treatment twice.
Total sleep time, latency to sleep and number of sleep episodes were measured: After administration of each dose to each group of animal, the latency to sleep, total sleep time and sleep episodes was recorded.
One way ANOVA test was applied for the comparison of the data from different groups for total sleep time, latency to sleep and number of sleep episodes.

[1] = Table 2, Dose 1 (5.14 μg/kg, SL)
[2] = Table 2, Dose 6 (1.5 μg/kg, I.V.)
[3] = group mean, Dose 1 (5.14 μg/kg Dexmedetomidine SL)
[4] = group mean, Dose 2 (10 μg/kg Dexmedetomidine SL)
[5] = group mean, Dose 3 (20 μg/kg Dexmedetomidine SL)
[6] = group mean, Dose 4 (30 μg/kg Dexmedetomidine SL)
[7] = group mean, Dose 5 (40 μg/kg Dexmedetomidine SL)
[8] = group mean, Dose 6 (1.5 μg/kg Dexmedetomidine I.V.)
[9] = individual animals, Dose 1 (5.14 μg/kg Dexmedetomidine SL)
[10] = individual animals, Dose 2 (10 μg/kg Dexmedetomidine SL)
[11] = individual animals, Dose 3 (20 μg/kg Dexmedetomidine SL)
[12] = individual animals, Dose 4 (30 μg/kg Dexmedetomidine SL)
[13] = individual animals, Dose 5 (40 μg/kg Dexmedetomidine SL)
[14] = individual animals, Dose 6 (1.5 μg/kg Dexmedetomidine I.V.)
[15] = parenteral dexmedetomidine (1.5 μg/kg, p.o.), compared to vehicle control
[16] = Table 2, Zolpidem (30 mg/kg, p.o.)
[17] = group mean, Zolpidem (30 mg/kg), orally
[18] = individual animals, Zolpidem (30 mg/kg), orally

With `Cc1cccc([C@H](C)c2cnc[nH]2)c1C` [Dexmedetomidine, 5-[(1 S)-1-(2,3-dimethylphenyl)ethyl]-1 H-imidazole] as the compound, how does the “Latency to Sleep (Mean and SEM)” value [1] read?
The value was 63.2.

And the “Number of Sleep Episodes (Mean and SEM)” value [1]?
The value was 2.33.

What about the “Total Sleep Time (Mean and SEM)” value [1] of the same compound?
Its value is 100.7.

And the “Latency to Sleep (Mean and SEM)” value (Table 2, Dose 2 (10 μg/kg, SL))?
The value was 21.0.

What about the “Number of Sleep Episodes (Mean and SEM)” value (Table 2, Dose 2 (10 μg/kg, SL)) of the same compound?
Its value is 4.50.

And the “Total Sleep Time (Mean and SEM)” value (Table 2, Dose 2 (10 μg/kg, SL))?
The value was 130.1.

And the “Latency to Sleep (Mean and SEM)” value (Table 2, Dose 3 (20 μg/kg, SL))?
Its value is 12.7.

And the “Number of Sleep Episodes (Mean and SEM)” value (Table 2, Dose 3 (20 μg/kg, SL))?
Its value is 4.00.

What about the “Total Sleep Time (Mean and SEM)” value (Table 2, Dose 3 (20 μg/kg, SL)) of the same compound?
The value was 150.2.

And the “Latency to Sleep (Mean and SEM)” value (Table 2, Dose 4 (30 μg/kg, SL))?
Its value is 13.2.

What about the “Number of Sleep Episodes (Mean and SEM)” value (Table 2, Dose 4 (30 μg/kg, SL)) of the same compound?
Its value is 2.50.

What about the “Total Sleep Time (Mean and SEM)” value (Table 2, Dose 4 (30 μg/kg, SL)) of the same compound?
Its value is 143.1.

And the “Latency to Sleep (Mean and SEM)” value (Table 2, Dose 5 (40 μg/kg, SL))?
The value was 16.7.

What about the “Number of Sleep Episodes (Mean and SEM)” value (Table 2, Dose 5 (40 μg/kg, SL)) of the same compound?
Its value is 2.67.

What about the “Total Sleep Time (Mean and SEM)” value (Table 2, Dose 5 (40 μg/kg, SL)) of the same compound?
Its value is 169.7.

What about the “Latency to Sleep (Mean and SEM)” value [2] of the same compound?
Its value is 25.4.

What about the “Number of Sleep Episodes (Mean and SEM)” value [2] of the same compound?
The value was 2.33.

And the “Total Sleep Time (Mean and SEM)” value [2]?
The value was 137.

And the “Latency to Sleep (Time of sleep onset), result in words” value (“Latency to Sleep (Time of sleep onset)” below) (dexmedetomidine dosed sublingually at 10, 20, 30 & 40 μg/kg, compared to vehicle control)?
Its value is “significantly lowered; also recorded: significantly reduced”.

What about the “Number of sleep episodes, result in words” value (dexmedetomidine dosed sublingually, from 10, 20, 30 & 40 μg/kg, compared to vehicle control) of the same compound?
The value was “gradually decreased”.

What about the “Latency to Sleep” value [3] of the same compound?
Its value is 63.17.

And the “Number of Sleep Episodes” value [3]?
The value was 2.33.

What about the “Total Sleep time Normalized to Vehicle*” value [3] of the same compound?
The value was 100.71.

What about the “Total Sleep time” value [3] of the same compound?
The value was 47.67 min.

What about the “Latency to Sleep” value [4] of the same compound?
The value was 21.00.

And the “Number of Sleep Episodes” value [4]?
Its value is 4.50.

What about the “Total Sleep time Normalized to Vehicle*” value [4] of the same compound?
The value was 130.13.

What about the “Total Sleep time” value [4] of the same compound?
Its value is 103.67 min.

What about the “Latency to Sleep” value [5] of the same compound?
Its value is 12.67.

What about the “Number of Sleep Episodes” value [5] of the same compound?
The value was 4.00.

What about the “Total Sleep time Normalized to Vehicle*” value [5] of the same compound?
Its value is 150.21.

And the “Total Sleep time” value [5]?
The value was 119.67 min.

And the “Latency to Sleep” value [6]?
The value was 13.17.

And the “Number of Sleep Episodes” value [6]?
Its value is 2.50.

What about the “Total Sleep time Normalized to Vehicle*” value [6] of the same compound?
The value was 143.10.

And the “Total Sleep time” value [6]?
Its value is 114.00 min.

And the “Latency to Sleep” value [7]?
Its value is 16.67.

And the “Number of Sleep Episodes” value [7]?
The value was 2.67.

And the “Total Sleep time Normalized to Vehicle*” value [7]?
The value was 169.67.

And the “Total Sleep time” value [7]?
The value was 135.17 min.

What about the “Latency to Sleep” value [8] of the same compound?
The value was 25.40.

What about the “Number of Sleep Episodes” value [8] of the same compound?
Its value is 2.33.

What about the “Total Sleep time Normalized to Vehicle*” value [8] of the same compound?
Its value is 136.98.

What about the “Total Sleep time” value [8] of the same compound?
Its value is 64.83 min.

What about the “Latency to Sleep” value [9] of the same compound?
The value was 97 and 101 and 87 and 94 and 0 (2×).

And the “Number of Sleep Episodes” value [9]?
The value was 2 (2×) and 5 (2×) and 0 (2×).

What about the “Total Sleep time Normalized to Vehicle*” value [9] of the same compound?
Its value is 184 and 203 and 125 and 93 and 0 (2×).

And the “Total Sleep time” value [9]?
Its value is 87 min and 96 min and 59 min and 44 min and 0 min (2×).

What about the “Latency to Sleep” value [10] of the same compound?
The value was 18 (2×) and 29 and 21 and 24 and 16.

What about the “Number of Sleep Episodes” value [10] of the same compound?
Its value is 5 (4×) and 4 and 3.

And the “Total Sleep time Normalized to Vehicle*” value [10]?
Its value is 128 and 102 and 108 and 141 and 152 and 151.

What about the “Total Sleep time” value [10] of the same compound?
The value was 102 min and 81 min and 86 min and 112 min and 121 min and 120 min.

What about the “Latency to Sleep” value [11] of the same compound?
Its value is 15 (2×) and 12 and 13 and 10 and 11.

And the “Number of Sleep Episodes” value [11]?
The value was 5 and 3 and 4 (4×).

What about the “Total Sleep time Normalized to Vehicle*” value [11] of the same compound?
Its value is 133 and 174 and 143 and 142 and 181 and 128.

And the “Total Sleep time” value [11]?
The value was 106 min and 139 min and 114 min and 113 min and 144 min and 102 min.

And the “Latency to Sleep” value [12]?
Its value is 11 (2×) and 23 and 8 and 10 and 16.

What about the “Number of Sleep Episodes” value [12] of the same compound?
Its value is 4 and 2 (4×) and 3.

And the “Total Sleep time Normalized to Vehicle*” value [12]?
Its value is 162 and 127 and 158 (2×) and 136 and 118.

And the “Total Sleep time” value [12]?
The value was 129 min and 101 min and 126 min (2×) and 108 min and 94 min.

What about the “Latency to Sleep” value [13] of the same compound?
The value was 16 (2×) and 17 and 18 and 13 and 20.

And the “Number of Sleep Episodes” value [13]?
The value was 2 (3×) and 4 and 3 (2×).

And the “Total Sleep time Normalized to Vehicle*” value [13]?
The value was 181 and 134 and 186 and 190 and 159 and 168.

And the “Total Sleep time” value [13]?
Its value is 144 min and 107 min and 148 min and 151 min and 127 min and 134 min.

What about the “Latency to Sleep” value [14] of the same compound?
The value was 18 and 27 and 26 and 24 and 85 and 32.

And the “Number of Sleep Episodes” value [14]?
The value was 3 (3×) and 1 and 2 (2×).

What about the “Total Sleep time Normalized to Vehicle*” value [14] of the same compound?
The value was 180 and 184 and 95 and 129 and 177 and 57.

And the “Total Sleep time” value [14]?
The value was 85 min and 87 min and 45 min and 61 min and 84 min and 27 min.

And the “Latency to Sleep (Time of sleep onset)” value [15]?
Its value is “significantly lowered”.

And the “Number of sleep episodes, result in words” value [15]?
The value was “gradually decreased”.

And the “Total sleep time, result in words” value (sublingual dexmedetomidine at dose range of 10 to 40 μg/kg)?
Its value is “no significant increase; also recorded: not significantly affecting”.

And the “Total Sleep Time (total duration of sleep in 180 min.), result in words” value (sublingual dexmedetomidine, 40 μg/kg)?
The value was “significant increase”.

`Cc1ccc(-c2nc3ccc(C)cn3c2CC(=O)N(C)C)cc1` [Zolpidem] was tested. Which “Latency to Sleep (Mean and SEM)” value [16] did it give?
The value was 27.0.

What about the “Number of Sleep Episodes (Mean and SEM)” value [16] of the same compound?
The value was 3.83.

And the “Total sleep time normalized to vehicle” value [16]?
Its value is 183.8.

What about the “Total Sleep Time (total duration of sleep in 180 min.), result in words” value (Zolpidem at the standard dose, compared to NC and Vehicle control) of the same compound?
Its value is “significant increase”.

What about the “Latency to Sleep (Time of sleep onset)” value (Zolpidem, compared to normal and vehicle control) of the same compound?
The value was “reduction in the sleep latency”.

What about the “Latency to Sleep” value [17] of the same compound?
The value was 27.00.

What about the “Number of Sleep Episodes” value [17] of the same compound?
Its value is 3.83.

And the “Total Sleep time Normalized to Vehicle*” value [17]?
Its value is 183.82.

What about the “Total Sleep time” value [17] of the same compound?
The value was 87.00 min.

What about the “Latency to Sleep” value [18] of the same compound?
Its value is 24 (2×) and 28 and 26 and 23 and 37.

What about the “Number of Sleep Episodes” value [18] of the same compound?
The value was 3 (3×) and 6 and 4 (2×).

What about the “Total Sleep time Normalized to Vehicle*” value [18] of the same compound?
Its value is 247 and 260 and 167 and 205 and 114 and 110.

What about the “Total Sleep time” value [18] of the same compound?
The value was 117 min and 123 min and 79 min and 97 min and 54 min and 52 min.
